Assay results taken from PubChem BioAssay (NCI).
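Dose response: 5 concentrations. Exposure: 48 h. Format: 96-well plates. Endpoint: linear interpolation; highest concentration if not reached. GI50 is the concentration that inhibits growth by half. Definition used: TGI = concentration required for complete inhibition of growth.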

What was measured:
Assay in all cases: NCI-60 cell line screen, 48 h
MOLT-4 leukemia = tested on: MOLT-4 leukemia
MDA-MB-231 breast = tested on: MDA-MB-231 breast
SK-MEL-2 melanoma = tested on: SK-MEL-2 melanoma
A549 NSCLC = tested on: A549 NSCLC
COLO 205 colon = tested on: COLO 205 colon
SF-539 CNS = tested on: SF-539 CNS
UACC-257 melanoma = tested on: UACC-257 melanoma
SR leukemia = tested on: SR leukemia
MDA-N = tested on: MDA-N
NCI-H226 lung = tested on: NCI-H226 lung
KM12 colon = tested on: KM12 colon
HS 578T breast = tested on: HS 578T breast
OVCAR-5 ovarian = tested on: OVCAR-5 ovarian
HCC-2998 colon = tested on: HCC-2998 colon
A498 renal = tested on: A498 renal
M14 melanoma = tested on: M14 melanoma
SK-OV-3 ovarian = tested on: SK-OV-3 ovarian
SF-295 CNS = tested on: SF-295 CNS
NCI-H23 lung = tested on: NCI-H23 lung
EKVX NSCLC = tested on: EKVX NSCLC
HOP-62 NSCLC = tested on: HOP-62 NSCLC
OVCAR-3 ovarian = tested on: OVCAR-3 ovarian
HCT-116 colon = tested on: HCT-116 colon
786-0 renal = tested on: 786-0 renal
NCI-H522 lung = tested on: NCI-H522 lung
SN12C renal = tested on: SN12C renal
SW-620 colon = tested on: SW-620 colon
MCF7 breast = tested on: MCF7 breast
NCI-H460 lung = tested on: NCI-H460 lung
U251 CNS = tested on: U251 CNS
RPMI-8226 leukemia = tested on: RPMI-8226 leukemia
LOX IMVI melanoma = tested on: LOX IMVI melanoma
SK-MEL-5 melanoma = tested on: SK-MEL-5 melanoma
OVCAR-8 ovarian = tested on: OVCAR-8 ovarian
TK-10 renal = tested on: TK-10 renal
UACC-62 melanoma = tested on: UACC-62 melanoma
MALME-3M melanoma = tested on: MALME-3M melanoma
HOP-92 NSCLC = tested on: HOP-92 NSCLC
CAKI-1 renal = tested on: CAKI-1 renal
SF-268 CNS = tested on: SF-268 CNS
K-562 leukemia = tested on: K-562 leukemia
DU-145 prostate = tested on: DU-145 prostate
CCRF-CEM leukemia = tested on: CCRF-CEM leukemia
RXF 393 renal = tested on: RXF 393 renal
HL-60(TB) leukemia = tested on: HL-60(TB) leukemia
HT29 colon = tested on: HT29 colon
PC-3 prostate = tested on: PC-3 prostate
ACHN renal = tested on: ACHN renal
UO-31 renal = tested on: UO-31 renal
SK-MEL-28 melanoma = tested on: SK-MEL-28 melanoma
T-47D breast = tested on: T-47D breast
SNB-75 CNS = tested on: SNB-75 CNS
OVCAR-4 ovarian = tested on: OVCAR-4 ovarian
SNB-19 CNS = tested on: SNB-19 CNS
MDA-MB-435 = tested on: MDA-MB-435
HCT-15 colon = tested on: HCT-15 colon
IGROV1 ovarian = tested on: IGROV1 ovarian
NCI/ADR-RES ovarian = tested on: NCI/ADR-RES ovarian
BT-549 breast = tested on: BT-549 breast

Compound: COc1ccc(C2CC(C)(O)Oc3cc4c(cc32)OCO4)cc1 (centres undefined)
- TGI (MOLT-4 leukemia): 88.6 µM
- TGI (MDA-MB-231 breast): > 100 µM
- TGI (SK-MEL-2 melanoma): 75.2 µM
- TGI (A549 NSCLC): > 100 µM
- TGI (COLO 205 colon): 46 µM
- TGI (SF-539 CNS): > 100 µM
- TGI (UACC-257 melanoma): > 100 µM
- TGI (SR leukemia): > 78.9 µM
- TGI (MDA-N): 36.4 µM
- TGI (NCI-H226 lung): > 100 µM
- TGI (KM12 colon): > 100 µM
- TGI (HS 578T breast): 97.9 µM
- TGI (OVCAR-5 ovarian): > 100 µM
- TGI (HCC-2998 colon): > 100 µM
- TGI (A498 renal): > 91.6 µM
- TGI (M14 melanoma): > 87.8 µM
- GI50 (SK-OV-3 ovarian): 43.2 µM
- TGI (SK-OV-3 ovarian): > 100 µM
- TGI (SF-295 CNS): > 100 µM
- TGI (NCI-H23 lung): > 100 µM
- TGI (EKVX NSCLC): > 100 µM
- TGI (HOP-62 NSCLC): > 100 µM
- TGI (OVCAR-3 ovarian): > 100 µM
- TGI (HCT-116 colon): > 100 µM
- TGI (786-0 renal): > 100 µM
- TGI (NCI-H522 lung): 44.6 µM
- TGI (SN12C renal): > 100 µM
- TGI (SW-620 colon): > 100 µM
- TGI (MCF7 breast): > 100 µM
- TGI (NCI-H460 lung): > 100 µM
- TGI (U251 CNS): > 100 µM
- TGI (RPMI-8226 leukemia): > 100 µM
- TGI (LOX IMVI melanoma): > 100 µM
- TGI (SK-MEL-5 melanoma): 69 µM
- TGI (OVCAR-8 ovarian): > 100 µM
- TGI (TK-10 renal): > 100 µM
- TGI (UACC-62 melanoma): > 100 µM
- TGI (MALME-3M melanoma): > 100 µM
- TGI (HOP-92 NSCLC): 69.5 µM
- TGI (CAKI-1 renal): > 100 µM
- TGI (SF-268 CNS): > 100 µM
- TGI (K-562 leukemia): 98.7 µM
- TGI (DU-145 prostate): > 100 µM
- TGI (CCRF-CEM leukemia): > 82.8 µM
- TGI (RXF 393 renal): > 39 µM
- TGI (HL-60(TB) leukemia): 68.4 µM
- TGI (HT29 colon): > 82.6 µM
- TGI (PC-3 prostate): > 81.1 µM
- TGI (ACHN renal): > 100 µM
- TGI (UO-31 renal): > 100 µM
- TGI (SK-MEL-28 melanoma): > 100 µM
- TGI (T-47D breast): > 50.5 µM
- TGI (SNB-75 CNS): > 100 µM
- TGI (OVCAR-4 ovarian): > 100 µM
- TGI (SNB-19 CNS): > 100 µM
- TGI (MDA-MB-435): 42.9 µM
- TGI (HCT-15 colon): > 100 µM
- TGI (IGROV1 ovarian): > 100 µM
- TGI (NCI/ADR-RES ovarian): > 78.2 µM
- TGI (BT-549 breast): > 88 µM

Compound: COc1ccc(C(=O)c2sc(Nc3ccc(Cl)cc3)nc2N)cc1
- TGI (MOLT-4 leukemia): > 71.4 µM
- TGI (MDA-MB-231 breast): > 92.4 µM
- TGI (SK-MEL-2 melanoma): > 49.1 µM
- TGI (A549 NSCLC): > 59.6 µM
- TGI (COLO 205 colon): > 100 µM
- TGI (SF-539 CNS): 66.2 µM
- TGI (UACC-257 melanoma): > 90.2 µM
- TGI (SR leukemia): > 45.2 µM
- TGI (MDA-N): > 22.2 µM
- TGI (NCI-H226 lung): > 100 µM
- TGI (KM12 colon): > 100 µM
- TGI (HS 578T breast): 47.4 µM
- TGI (OVCAR-5 ovarian): > 100 µM
- TGI (HCC-2998 colon): 44.7 µM
- TGI (A498 renal): > 75 µM
- TGI (M14 melanoma): > 100 µM
- TGI (SK-OV-3 ovarian): 27.2 µM
- TGI (SF-295 CNS): 46.7 µM
- TGI (NCI-H23 lung): > 51.6 µM
- TGI (EKVX NSCLC): > 100 µM
- TGI (HOP-62 NSCLC): 38.6 µM
- TGI (OVCAR-3 ovarian): 35 µM
- TGI (HCT-116 colon): > 34.4 µM
- TGI (786-0 renal): 28.6 µM
- TGI (NCI-H522 lung): 33.9 µM
- TGI (SN12C renal): > 62.8 µM
- TGI (SW-620 colon): > 100 µM
- TGI (MCF7 breast): > 100 µM
- TGI (NCI-H460 lung): 36.3 µM
- TGI (U251 CNS): > 55.5 µM
- TGI (RPMI-8226 leukemia): > 43.5 µM
- TGI (LOX IMVI melanoma): > 100 µM
- TGI (SK-MEL-5 melanoma): > 100 µM
- TGI (OVCAR-8 ovarian): > 100 µM
- TGI (TK-10 renal): 33.4 µM
- TGI (UACC-62 melanoma): > 100 µM
- TGI (MALME-3M melanoma): > 59.4 µM
- TGI (HOP-92 NSCLC): > 63.5 µM
- TGI (CAKI-1 renal): 42.2 µM
- TGI (SF-268 CNS): 43.3 µM
- TGI (K-562 leukemia): > 100 µM
- TGI (DU-145 prostate): > 100 µM
- TGI (CCRF-CEM leukemia): 58.1 µM
- TGI (RXF 393 renal): > 54 µM
- TGI (HL-60(TB) leukemia): > 100 µM
- TGI (HT29 colon): > 64.9 µM
- TGI (PC-3 prostate): > 68.3 µM
- TGI (ACHN renal): > 87.7 µM
- TGI (UO-31 renal): 97.7 µM
- TGI (SK-MEL-28 melanoma): > 100 µM
- TGI (T-47D breast): > 100 µM
- TGI (SNB-75 CNS): 18.4 µM
- TGI (OVCAR-4 ovarian): > 61.4 µM
- TGI (SNB-19 CNS): > 69.9 µM
- TGI (MDA-MB-435): 7.35 µM
- TGI (HCT-15 colon): > 100 µM
- TGI (IGROV1 ovarian): > 53.9 µM
- TGI (NCI/ADR-RES ovarian): > 69.5 µM
- TGI (BT-549 breast): > 100 µM
